In patent US10059740B2, “Integrin interaction inhibitors for the treatment of cancer” (H. LEE MOFFITT CANCER CENTER AND RESEARCH INSTITUTE, INC., priority 2010, dated 2018):
Like-named read-outs stand apart in the source and are kept apart here. One block for each molecule: values may come before it. Starred links: 1 amine or outer side, 2 acyl side, 3 side chain; linkers in the order of their positions; H or OH if unused. Positions of bridges follow the written chain, without caps; N, C: chain ends. Non-standard residues stand in square brackets, D forms with d. Residues, ends and D or L forms follow the SMILES beside them. *: point of attachment. T1 = NH2CH2CH2N(SO2Me)CH2COOH, methylsulfonamido aminoethyl glycine linker; dProlinol(O-CH2CO) = O=C(COC[C@H]1CCCN1[*:1])[*:2]; N(2-Aminoethyl)Gly = O=C(CN(CCN[*:3])[*:1])[*:2]; Nle = CCCC[C@H](N)C(=O)O; Ms = CS(=O)(=O)*; Sar = CNCC(=O)O

Key:
H929 myeloma cells [1] = type: cell-based; conditions: for change in activity relative to the inverso peptide L-cINTEGRIN INTERACTION INHIBITORS: alanine scan and analogs, Table 4 legend; for bioactivity of cyclic III peptide analogs, in words: SAR discussion of Table 8
Procedure: H929 cells were treated for 24 hours with varying concentrations of peptide. Cell death was measured by Topro-3 staining and FACS analysis. The IC50 values were obtained from linear regression analysis and an average value was obtained from 3 independent experiments.
Table 4 legend: Structure activity relationship in H929 myeloma cells of cyclic INTEGRIN INTERACTION INHIBITORS derivatives. The minimal bioactive core sequence of INTEGRIN INTERACTION INHIBITORS WSVVM (SEQ ID NO:85) was cyclized using 2 novel reduced amide bond beta turn promoters and KLKLK (SEQ ID NO:27) as the non-recognition sequence. H929 cells were treated with varying concentrations of the indicated peptide for 24 h. Cell viability was determined using Topro-3 staining and FACS analysis after drug treatment. IC50 values were generated from linear regressions generated from the dose response curves (n=mean of 3 independent experiments).
Using combinatorial peptide libraries and a functional binding assay, several peptides have been identified that inhibited α2β1 and α6β1 integrin mediated adhesion of prostate cancer cells to fibronectin, laminin and collagen IV.^1 They identified an all D-amino acid containing peptide referred as HYD1 ([…]) (SEQ ID NO:278) that blocks binding of epithelial prostate carcinoma cells to extracellular matrix components.^2,3 Hazlehurst and co-workers have truncated the N- and C-termini and alanine scan studies identified MVISW (SEQ ID NO:279) as the likely core region of linear D-HYD1 required for biological activity. […] The pentapeptide (KLKLK) (SEQ ID NO:27) was selected as the non-recognition strand to improve the solubility. N- to C-terminus cyclization of linear peptides was done to restrict the number of conformations available to the linear peptide which increases the affinity of the cyclized peptide for its target when the constraint stabilizes the bound conformation of the peptide. We synthesized cyclic D-HYD1 using a novel methylsulfonamide aminoethyl glycine linker T1 that connects two anti-parallel strands. […] The inverso- (peptide 2, Table 4) and partially modified retro-inverso (PMRI) (peptide 10) pentapeptide sequences of the recognition strand of cyclic III (Integrin Interaction Inhibitors also known as cyclic L-HYD1) peptide analogs were subsequently investigated for their potential to block beta integrin mediated cell adhesion. The retro-inverso design of biologically active peptides is a well-known strategy to design all D-amino acid peptides from potentially bioactive all L-peptide sequences with increased stability^4-7.
A colony forming assay was used to compare induced cell death in H929 multiple myeloma cells. Cells were treated with integrin interaction inhibitors, shown in FIG. 5 and Table 4, and cell death was measured following 24 hour peptide treatment by TOPRO-3 staining and FACS analysis.

[2] = Weight and overt toxicity of mice injected with c-HYD1; type: in vivo
Procedure: (§1) Briefly, 50,000 H929 myeloma cells were engrafted into the bone implant for 10 days prior to initiation of peptide treatment. Following tumor engraftment mice were randomized (0 time point) and injected with 8 mg/kg c-HYD1 or vehicle control (VC) daily (I.P. injections) for 14 days and every other day from day 14-28 at which time treatment stopped. Tumor burden was measured by circulating Kappa levels by ELISA weekly. N=10 mice for vehicle control (VC) and 9 mice for c-HYD1 treated.
FIG. 42 is a graph showing the effect of cyclized HYD1 (c-HYD1) injection on the weight of mice.

H929 myeloma cells [3] = assay: MM SCID-Hu in vivo model, tumor burden by circulating Kappa levels (ELISA); parameters: species or system mice; conditions: 8 mg/kg I.P. daily 14 days, every other day day 14-28; p<0.05 ANOVA vs vehicle
Procedure: as §1
(§2) CD34^+ hematopoietic progenitor cells were isolated from peripheral blood and treated for 2 hrs with integrin interaction inhibitors (12.5 and 50 μg/ml) and then plated in a methylcellulose media supplemented with growth factors supporting myeloid and erythroid colonies. Colonies were counted on day 12 post-plating. […] In addition, we evaluated the toxicity of integrin interaction inhibitors in normal peripheral blood mononuclear cells (PBMC).

U266 = assay: Drug combination, cell viability by CT-Blue assay, Chou and Talalay Combination Index; type: cell-based; conditions: combination with the named agent
[4] = test system: peripheral blood mononuclear cells (PBMC); assay: Cell death in normal peripheral blood mononuclear cells, annexin V positivity and FACS; type: cell-based; conditions: 6.25-50 ug/ml, six hours
Procedure: Peripheral blood mononuclear cells (PBMC) were isolated from a normal donor. Cells were treated with 6.25, 12.5, 25 and 50 ug/ml for six hours and cell death was measured by annexin V positivity and FACS analysis.
as §2

Molecule: CCCC[C@@H]1NC(=O)CN(S(C)(=O)=O)CCNC(=O)[C@H](CCCCN)NC(=O)[C@H](CC(C)C)NC(=O)[C@H](CCCCN)NC(=O)[C@H](CC(C)C)NC(=O)[C@H](CCCCN)NC(=O)COC[C@H]2CCCN2C(=O)[C@H](Cc2c[nH]c3ccccc23)NC(=O)[C@H](C)NC(=O)[C@H](C(C)C)NC(=O)[C@H](C(C)C)NC1=O [c-HYD1] (Ms-[N(2-Aminoethyl)Gly][Nle]VVAW[dProlinol(O-CH2CO)]KLKLK; lactam 1-C)
fold more potent than the parent linear HYD1 peptide (H929 myeloma cells [1]; H929 cells): 30 fold
IC50 (H929 myeloma cells [1]; H929 cells, 24 hours, Topro-3 and FACS, read-out: IC50 value in H929 cells): 1.2 µM
weight loss and overt signs of toxicity [2]: No weight loss or any overt signs of toxicity were observed
tumor growth (circulating Kappa levels) (H929 myeloma cells [3]): significantly reduces tumor growth

Molecule: COc1cccc2c1C(=O)c1c(O)c3c(c(O)c1C2=O)C[C@@](O)(C(=O)CO)C[C@@H]3O[C@H]1C[C@H](N)[C@H](O)[C@H](C)O1 [doxorubicin]
synergy with integrin interaction inhibitors, in words (U266): strong synergism

Molecule: arsenic trioxide
synergy with integrin interaction inhibitors, in words (U266): strong synergism

Molecule: CCCC[C@@H]1NC(=O)[C@H](C)NC(=O)[C@H](C(C)C)NC(=O)[C@H](C)NC(=O)[C@H](Cc2c[nH]c3ccccc23)NC(=O)CN(S(C)(=O)=O)CCNC(=O)[C@H](CCCCN)NC(=O)[C@H](CC(C)C)NC(=O)[C@H](CCCCN)NC(=O)[C@H](CC(C)C)NC(=O)[C@H](CCCCN)NC(=O)CN(S(C)(=O)=O)CCNC1=O [Peptide 13, KLKLKT1WAVAN*T1]
IC50 (H929 myeloma cells [1]; cyclic III peptide analogs, Table 8, H929 cells, TOPRO 3, read-out: IC50): 26 µM

Molecule: CSCC[C@@H]1NC(=O)CN(S(C)(=O)=O)CCNC(=O)[C@H](CCCCN)NC(=O)[C@H](CC(C)C)NC(=O)[C@H](CCCCN)NC(=O)[C@H](CC(C)C)NC(=O)[C@H](CCCCN)NC(=O)CN(S(C)(=O)=O)CCNC(=O)[C@H](Cc2c[nH]c3ccccc23)NC(=O)[C@H](CO)NC(=O)[C@H](C)NC(=O)[C@H](C(C)C)NC1=O [III 4]
change in activity relative to the inverso peptide L-cINTEGRIN INTERACTION INHIBITORS (H929 myeloma cells [1]; H929 cells): decrease in activity

Molecule: CCCC[C@@H]1NC(=O)CN(S(C)(=O)=O)CCNC(=O)[C@H](CCCCN)NC(=O)[C@H](CC(C)C)NC(=O)[C@H](CCCCN)NC(=O)[C@H](CC(C)C)NC(=O)[C@H](CCCCN)NC(=O)CN(S(C)(=O)=O)CCNC(=O)[C@H](Cc2c[nH]c3ccccc23)NC(=O)[C@H](CO)NC(=O)[C@H](C(C)C)NC(=O)[C@H](C(C)C)NC1=O [III 7]
change in activity relative to the inverso peptide L-cINTEGRIN INTERACTION INHIBITORS (H929 myeloma cells [1]; H929 cells): increase in activity

Molecule: L-HYD1: the inverso (L-HYD1) cyclic compound (cyclo(KLKLKMVVSW)-T1; not fully specified (residue 5))
potency relative to cyclic D-HYD1 (H929 myeloma cells [1]; H929 cells): 2 fold

Molecule: CCCC[C@@H]1NC(=O)[C@H](C(C)C)NC(=O)[C@H](C(C)C)NC(=O)[C@H](C)NC(=O)[C@H](Cc2c[nH]c3ccccc23)NC(=O)COC[C@H]2CCCN2C(=O)[C@H](CCCCN)NC(=O)CN(C)C(=O)[C@H](CCCCN)NC(=O)CN(C)C(=O)[C@H](CCCCN)NC(=O)COC[C@H]2CCCN2C1=O [Peptide 23, KXKXKT3WAVVN*T3] (cyclo(K[Sar]K[Sar]K[dProlinol(O-CH2CO)]WAVV[Nle][dProlinol(O-CH2CO)]))
bioactivity of cyclic III peptide analogs, in words (H929 myeloma cells [1]): poor bioactivity

IC50 (H929 myeloma cells [1]; 24 h): 12 µM
Molecule: CCCC[C@@H]1NC(=O)[C@H](C(C)C)NC(=O)[C@H](C(C)C)NC(=O)[C@H](C)NC(=O)[C@H](Cc2c[nH]c3ccccc23)NC(=O)CN(S(C)(=O)=O)CCNC(=O)[C@H](CCCCN)NC(=O)[C@H](CC(C)C)NC(=O)[C@H](CCCCN)NC(=O)[C@H](CC(C)C)NC(=O)[C@H](CCCCN)NC(=O)CN(S(C)(=O)=O)CCNC1=O [Peptide 11, KLKLKT1WAVVN*T1]

IC50 (H929 myeloma cells [1]; 24 h): 6.7 µM
Molecule: CSCC[C@@H]1NC(=O)[C@H](C(C)C)NC(=O)[C@H](C(C)C)NC(=O)[C@H](CO)NC(=O)[C@H](Cc2c[nH]c3ccccc23)NC(=O)CN(S(C)(=O)=O)CCNC(=O)[C@H](CCCCN)NC(=O)[C@H](CC(C)C)NC(=O)[C@H](CCCCN)NC(=O)[C@H](CC(C)C)NC(=O)[C@H](CCCCN)NC(=O)CN(S(C)(=O)=O)CCNC1=O [III 8]
change in activity relative to the inverso peptide L-cINTEGRIN INTERACTION INHIBITORS (H929 myeloma cells [1]; H929 cells): increases in activity

Molecule: CC[C@@H](C)[C@@H](NC(=O)[C@H](N)CCCCN)C(=O)N[C@H](CCCCN)C(=O)N[C@H](CCSC)C(=O)N[C@@H](C(=O)N[C@@H](C(=O)N[C@H](CO)C(=O)N[C@H](Cc1c[nH]c2ccccc12)C(=O)N[C@H](CCCCN)C(=O)NCC(=O)O)[C@H](C)CC)C(C)C [HYD1]
cell death in normal PBMC [4]: more potent in MM cells (H929) compared to normal hematopoietic cells

IC50 (H929 myeloma cells [1]; 24 h): 3 µM
Molecule: CCCC[C@@H]1NC(=O)[C@H](C(C)C)NC(=O)[C@H](C(C)C)NC(=O)[C@H](C)NC(=O)[C@H](C)NC(=O)CN(S(C)(=O)=O)CCNC(=O)[C@H](CCCCN)NC(=O)[C@H](CC(C)C)NC(=O)[C@H](CCCCN)NC(=O)[C@H](CC(C)C)NC(=O)[C@H](CCCCN)NC(=O)CN(S(C)(=O)=O)CCNC1=O [Peptide 15, KLKLKT1AAVVN*T1]
bioactivity of cyclic III peptide analogs, in words (H929 myeloma cells [1]): unexpected improvement in bioactivity

IC50 (H929 myeloma cells [1]; 24 h): 18 µM
Molecule: CCCC[C@@H]1NC(=O)CN(S(C)(=O)=O)CCNC(=O)[C@H](CCCCN)NC(=O)[C@H](CC(C)C)NC(=O)[C@H](CCCCN)NC(=O)[C@H](CCC(N)=O)NC(=O)[C@H](CCCCN)NC(=O)COC[C@H]2CCCN2C(=O)[C@H](Cc2c[nH]c3ccccc23)NC(=O)[C@H](C)NC(=O)[C@H](C(C)C)NC(=O)[C@H](C(C)C)NC1=O [Peptide 20, KQKLKT1N*VVAWT3] (Ms-[N(2-Aminoethyl)Gly][Nle]VVAW[dProlinol(O-CH2CO)]KQKLK; lactam 1-C)

Molecule: CC(C)C[C@@H]1NC(=O)[C@H](CCCCN)NC(=O)CN(S(C)(=O)=O)CCNC(=O)[C@H](Cc2c[nH]c3ccccc23)NC(=O)[C@H](CO)NC(=O)[C@H](C(C)C)NC(=O)[C@H](C(C)C)NC(=O)[C@H](C)NC(=O)CN(S(C)(=O)=O)CCNC(=O)[C@H](CCCCN)NC(=O)[C@H](CC(C)C)NC(=O)[C@H](CCCCN)NC1=O [III 6]
change in activity relative to the inverso peptide L-cINTEGRIN INTERACTION INHIBITORS (H929 myeloma cells [1]; H929 cells): decrease in activity

Molecule: CSCC[C@@H]1NC(=O)CN(S(C)(=O)=O)CCNC(=O)[C@H](CCCCN)NC(=O)[C@H](CC(C)C)NC(=O)[C@H](CCCCN)NC(=O)[C@H](CC(C)C)NC(=O)[C@H](CCCCN)NC(=O)CN(S(C)(=O)=O)CCNC(=O)[C@H](Cc2c[nH]c3ccccc23)NC(=O)[C@H](CO)NC(=O)[C@H](C(C)C)NC(=O)[C@H](C(C)C)NC1=O [III 1]
fold more potent than the parent linear HYD1 peptide (H929 myeloma cells [1]; H929 cells): 2.5 fold
